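Exposure lasted 48 hours, with cells grown in 96-well plates and compounds tested at five concentrations. Here, GI50 denotes the concentration required for 50% inhibition of growth.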 The source made the active and inactive calls. Cut-off read from the data, not from the text of the source: active = GI50 up to about 1.1 µM and inactive = higher.
Legend:
Experiment in all cases: NCI-60 cell line screen, 48 h
[1] = tested on: 786-0
[2] = tested on: A498
[3] = tested on: A549
[4] = tested on: ACHN
[5] = tested on: BT-549
[6] = tested on: CAKI-1
[7] = tested on: CCRF-CEM
[8] = tested on: COLO 205
[9] = tested on: DU-145
[10] = tested on: EKVX
[11] = tested on: HCT-116
[12] = tested on: HCT-15
[13] = tested on: HL-60
[14] = tested on: HOP-62
[15] = tested on: HOP-92
[16] = tested on: HT-29
[17] = tested on: Hs-578T
[18] = tested on: IGROV-1
[19] = tested on: K562
[20] = tested on: KM12
[21] = tested on: LOX IMVI
[22] = tested on: M14
[23] = tested on: MCF7
[24] = tested on: MDA-MB-231
[25] = tested on: MDA-MB-435
[26] = tested on: MDA-N
[27] = tested on: MOLT-4
[28] = tested on: Malme-3M
[29] = tested on: NCI-H226
[30] = tested on: NCI-H23
[31] = tested on: NCI-H460
[32] = tested on: NCI-H522
[33] = tested on: NCI/ADR-RES
[34] = tested on: OVCAR-3
[35] = tested on: OVCAR-4
[36] = tested on: OVCAR-5
[37] = tested on: OVCAR-8
[38] = tested on: PC-3
[39] = tested on: RPMI-8226
[40] = tested on: RXF 393
[41] = tested on: SF-268
[42] = tested on: SF-295
[43] = tested on: SF-539
[44] = tested on: SK-MEL-28
[45] = tested on: SK-MEL-2
[46] = tested on: SK-MEL-5
[47] = tested on: SK-OV-3
[48] = tested on: SN12C
[49] = tested on: SNB-19
[50] = tested on: SNB-75
[51] = tested on: SR
[52] = tested on: SW-620
[53] = tested on: T47D
[54] = tested on: TK-10
[55] = tested on: U-251
[56] = tested on: UACC-257
[57] = tested on: UACC-62
[58] = tested on: UO-31
[59] = tested on: HCC 2998

Measured: GI50

NCCOc1ccccn1
> 100 µM: [12]
inactive: [1] > 100 µM | [2] > 100 µM | [3] > 100 µM | [4] > 100 µM | [5] > 100 µM | [6] > 100 µM | [7] > 100 µM | [8] > 100 µM | [9] > 100 µM | [10] > 100 µM | [11] > 100 µM | [13] > 100 µM | [14] > 100 µM | [15] > 100 µM | [16] > 100 µM | [17] > 100 µM | [18] > 100 µM | [19] > 100 µM | [20] > 100 µM | [21] > 100 µM | [22] > 100 µM | [23] > 100 µM | [24] > 100 µM | [25] > 100 µM | [26] > 100 µM | [27] > 100 µM | [28] > 100 µM | [29] > 100 µM | [30] > 100 µM | [31] > 100 µM | [32] > 100 µM | [33] > 100 µM | [34] > 100 µM | [35] > 100 µM | [36] > 100 µM | [37] > 100 µM | [38] > 100 µM | [39] > 100 µM | [40] > 100 µM | [41] > 100 µM | [42] > 100 µM | [43] > 100 µM | [44] > 100 µM | [45] > 100 µM | [46] > 100 µM | [47] > 100 µM | [48] > 100 µM | [49] > 100 µM | [50] > 100 µM | [51] > 100 µM | [52] > 100 µM | [53] > 100 µM | [54] > 100 µM | [55] > 100 µM | [56] > 100 µM | [57] > 100 µM | [58] > 100 µM

CC(=O)N(C)c1ccc(/N=C/N(C)C)cc1
> 100 µM: [12]
inactive: [1] > 100 µM | [2] > 100 µM | [3] > 100 µM | [4] > 100 µM | [5] > 100 µM | [6] > 100 µM | [7] > 100 µM | [8] > 100 µM | [9] > 100 µM | [10] > 100 µM | [11] > 100 µM | [13] > 100 µM | [14] > 100 µM | [15] > 100 µM | [16] > 100 µM | [17] > 10 µM | [18] > 100 µM | [19] > 100 µM | [21] > 100 µM | [22] > 100 µM | [23] 82.4 µM | [24] > 100 µM | [25] > 100 µM | [26] > 100 µM | [27] > 100 µM | [28] > 100 µM | [29] > 100 µM | [30] > 100 µM | [32] > 100 µM | [33] > 100 µM | [34] 44 µM | [35] > 100 µM | [36] > 100 µM | [37] > 100 µM | [38] > 100 µM | [39] > 100 µM | [40] > 100 µM | [41] > 100 µM | [42] > 100 µM | [43] > 100 µM | [44] > 100 µM | [45] > 100 µM | [46] > 100 µM | [47] > 100 µM | [48] > 100 µM | [49] > 100 µM | [50] > 100 µM | [51] > 100 µM | [53] > 100 µM | [54] > 100 µM | [55] > 100 µM | [56] > 100 µM | [57] > 100 µM | [58] > 100 µM

Cc1ccc(/C=N/NS(=O)(=O)c2ccc(/C=C3\NC(=O)NC3=O)cc2)cc1
inactive: [1] 61.1 µM | [2] > 100 µM | [3] > 100 µM | [4] > 100 µM | [5] > 100 µM | [6] > 100 µM | [7] > 100 µM | [8] > 100 µM | [9] > 100 µM | [10] 64.9 µM | [59] > 100 µM | [11] > 100 µM | [13] > 100 µM | [14] 27.6 µM | [15] 53.7 µM | [16] > 100 µM | [17] 24.2 µM | [18] 87.9 µM | [19] > 100 µM | [20] > 100 µM | [21] > 100 µM | [22] > 100 µM | [23] > 100 µM | [24] 37.1 µM | [25] > 100 µM | [26] > 100 µM | [27] > 100 µM | [28] > 100 µM | [29] > 100 µM | [30] > 100 µM | [31] > 100 µM | [33] 75.7 µM | [34] > 100 µM | [35] > 100 µM | [36] 35.9 µM | [37] 37.8 µM | [38] > 100 µM | [39] > 100 µM | [40] > 100 µM | [41] 22.1 µM | [42] 46.7 µM | [44] > 100 µM | [45] > 100 µM | [46] > 100 µM | [47] > 100 µM | [48] > 100 µM | [49] 31 µM | [50] 18.2 µM | [51] 31.6 µM | [52] > 100 µM | [53] > 100 µM | [54] > 100 µM | [55] 40.8 µM | [56] > 100 µM | [57] > 100 µM | [58] > 100 µM
> 100 µM: [12]

Cc1ccc(O)c(C2=CC3=NNC(=O)C3C(c3cccc(Br)c3)C2)c1 (stereo not given)
inactive: [1] 29.5 µM | [2] 42.9 µM | [3] 23 µM | [4] 24 µM | [5] 23.1 µM | [6] 23 µM | [7] 25.1 µM | [8] 12.3 µM | [9] 29.2 µM | [10] 25.9 µM | [59] 14.7 µM | [11] 21 µM | [13] 25.4 µM | [14] 55 µM | [15] 16.6 µM | [16] 23.8 µM | [17] 27.1 µM | [18] 23.1 µM | [19] 25.8 µM | [20] 14.9 µM | [21] 14 µM | [22] 36.9 µM | [23] 11.4 µM | [24] 20 µM | [25] 23.9 µM | [26] 23.7 µM | [27] 30.9 µM | [28] 25.9 µM | [30] 23.7 µM | [31] 22.4 µM | [33] 34.6 µM | [34] 22.3 µM | [35] 8.04 µM | [36] 21.8 µM | [37] 20.8 µM | [38] 34.3 µM | [39] 22.1 µM | [40] 14.2 µM | [41] 23 µM | [42] 18.8 µM | [43] 29.4 µM | [44] 20.6 µM | [45] 27.4 µM | [46] 23.1 µM | [47] 14.6 µM | [48] 19.9 µM | [49] 34.2 µM | [50] 22.6 µM | [51] 21.2 µM | [52] 27.7 µM | [53] 20.5 µM | [54] 18.6 µM | [55] 21.7 µM | [56] 45.2 µM | [57] 19.6 µM | [58] 57.3 µM
20.9 µM: [12]

CC1(C=O)CC(CCc2ccccc2)NC1Cc1ccc(O)cc1 (stereo not given)
inactive: [1] 15.2 µM | [2] 14.6 µM | [3] 15.4 µM | [4] 15.3 µM | [5] 22.9 µM | [6] 14.8 µM | [7] 20.2 µM | [8] 10.6 µM | [9] 17.5 µM | [10] 15.2 µM | [59] 11.6 µM | [11] 15.6 µM | [13] 12.6 µM | [14] 18.6 µM | [15] 15.3 µM | [16] 14.9 µM | [17] 19.5 µM | [18] 14 µM | [19] 16.7 µM | [20] 18.2 µM | [21] 17 µM | [22] 15.6 µM | [23] 14.1 µM | [24] 13.6 µM | [25] 17.4 µM | [26] 17.4 µM | [27] 14.1 µM | [29] 15.5 µM | [30] 23 µM | [31] 16.6 µM | [32] 19.4 µM | [33] 18.8 µM | [34] 17 µM | [35] 14.2 µM | [36] 17.4 µM | [37] 21 µM | [38] 13.8 µM | [39] 16.2 µM | [40] 15.7 µM | [41] 16.6 µM | [42] 17.7 µM | [43] 15.3 µM | [44] 22.1 µM | [45] 14.8 µM | [46] 15.6 µM | [47] 17.4 µM | [48] 16.9 µM | [49] 14.5 µM | [50] 14.7 µM | [51] 12 µM | [52] 23.3 µM | [53] 15.8 µM | [54] 17.3 µM | [55] 13.7 µM | [56] 15.1 µM | [57] 16.6 µM | [58] 14.5 µM
21.3 µM: [12]

— ChEMBL document CHEMBL1201862, “PubChem BioAssay data set” (2004)
